Reference: article PMC4292804 (Journal of pharmacokinetics and pharmacodynamics, 2013)
Read-outs that look alike come from different tables or passages of the source.

Experiments:
[1] = ref Kemper et al. 46; cited from earlier work
[2] = Docetaxel pharmacokinetic; details: 3 mg/kg i.v.
[3] = cited from earlier work
ABCB1 [4] = details: homozygous 1236C > T polymorphism in the ABCB1 gene; cited from earlier work
[5] = Docetaxel pharmacokinetic; assay type: in vivo, mice; details: for AUC: FVB, mouse, iv, 3 mg/kg
[6] = PBPK model of docetaxel: simulations and parameter estimation; design: species or system mice; details: for % Difference between observed FVB AUC and predicted FVB AUC / % Difference between observed KO AUC and predicted KO AUC: 100 × (predicted − observed)/observed
ABCB1 [7] = assay: PBPK model: saturable ABCB1; design: species or system mice; details: value (SD) by parameter estimation, FVB data
[8] = Mdr1a/b constitutive knockout (KO), mouse, in vivo, iv, 3 mg/kg, 12 h
CYP3A4 [9] = details: cited from earlier work
[10] = both FVB and KO mice; intravenous; cannulated gallbladder; cited from earlier work
tubulin [11] = details: determined for colchicine, used for docetaxel; cited from earlier work
CYP3A4 [12] = details: PBPK model parameter, KO mouse model; scaled from in vitro Vmax of ref 27
tubulin [13] = details: higher than paclitaxel; cited from earlier work
CYP3A4 [14] = details: cited from earlier work; remark: listed apart in the source
[15] = value (SD) by parameter estimation, FVB and KO data

CC(=O)O[C@@]12CO[C@@H]1C[C@H](O)[C@@]1(C)C(=O)[C@H](O)C3=C(C)[C@@H](OC(=O)[C@H](O)[C@@H](NC(=O)OC(C)(C)C)c4ccccc4)C[C@@](O)([C@@H](OC(=O)c4ccccc4)[C@H]21)C3(C)C [docetaxel, Docetaxel]
Increase in docetaxel exposure in the brain, KO versus FVB mice [1]: +516% | Increase in docetaxel concentration in the liver of KO versus FVB mice ([2]; 12 h): 59% | Docetaxel plasma concentrations, FVB versus KO mice ([2]; during the study (1–12 h)): did not note differences | Docetaxel tissue concentration, KO versus FVB mice ([2]; lung, kidney, heart, intestine and brain at 2, 4, 8 and 12 h): statistically significant increase | Bound to plasma proteins [3]: 93% | Fraction of docetaxel unbound to plasma proteins (FU) ([3]; unbound fraction in the blood): 0.07 | Decrease in docetaxel clearance (ABCB1 [4]): 25% | Unchanged docetaxel recovered in the feces ([5]; FVB mice, 12 h, 3 mg/kg i.v.): less than 1.5 % of the administered dose | AUC ([5]; brain): 0.184 µM·h | AUC ([5]; heart): 13 µM·h | AUC ([5]; intestine): 3.21 µM·h | AUC ([5]; kidney): 14.5 µM·h | AUC ([5]; liver): 4.34 µM·h | AUC ([5]; lung): 18.9 µM·h | AUC ([5]; plasma): 0.523 µM·h | FVB tubular reabsorption rate constant (K_RABS_fvb) ([6]; FVB, value (SD) by parameter estimation): 0.02 (0.001) h^−1 | KO tubular reabsorption rate constant (K_RABS_ko) ([6]; KO, value (SD) by parameter estimation): 1.8 (0.001) h^−1 | % Difference between observed FVB AUC and predicted FVB AUC ([6]; brain): −4.3% | % Difference between observed KO AUC and predicted KO AUC ([6]; brain): +14.8% | % Difference between observed FVB AUC and predicted FVB AUC ([6]; heart): −11.3% | % Difference between observed KO AUC and predicted KO AUC ([6]; heart): +2.9% | First-order liver metabolism rate constant (K_LMET) ([6]; hepatic CYP3A4 metabolism, value (SD) by parameter estimation): 3,664 (1.444) h^−1 | First-order FVB intestine metabolism rate constant (K_IMET_fvb) ([6]; intestinal CYP3A4 metabolism, FVB, value (SD) by parameter estimation): 19 (0.008) h^−1 | % Difference between observed FVB AUC and predicted FVB AUC ([6]; intestine): −3.1% | % Difference between observed KO AUC and predicted KO AUC ([6]; intestine): +0.2% | % Difference between observed FVB AUC and predicted FVB AUC ([6]; kidney): +6.3% | % Difference between observed KO AUC and predicted KO AUC ([6]; kidney): −0.7% | % Difference between observed FVB AUC and predicted FVB AUC ([6]; liver): −8.6% | % Difference between observed KO AUC and predicted KO AUC ([6]; liver): +3.0% | % Difference between observed FVB AUC and predicted FVB AUC ([6]; lung): −7.9% | % Difference between observed KO AUC and predicted KO AUC ([6]; lung): +5.1% | % Difference between observed FVB AUC and predicted FVB AUC ([6]; plasma): −2.9% | % Difference between observed KO AUC and predicted KO AUC ([6]; plasma): +14.8% | Tubulin binding capacity, Slowly perfused (TB_sp) ([6]; value (SD) by parameter estimation): 521 (0.231) nmol/kg | Partition coefficient FVB intestine:plasma (P_int_fvb) ([6]; value (SD) by parameter estimation, FVB): 195 (0.008) Ratio | Partition coefficient Brain:plasma (P_brn) [6, 15]: 58 (0.013) Ratio | Partition coefficient Heart:plasma (P_hrt) [6, 15]: 990 (0.231) Ratio | Partition coefficient Kidney:plasma (P_kid) [6, 15]: 995 (0.222) Ratio | Partition coefficient Liver:plasma (P_liv) [6, 15]: 7,088 (1.653) Ratio | Partition coefficient Lung:plasma (P_lng) [6, 15]: 2,376 (0.546) Ratio | Partition coefficient Slowly perfused:plasma (P_sp) [6, 15]: 748 (0.174) Ratio | Partition coefficient KO intestine:plasma (P_int_ko) ([6]; value (SD) by parameter estimation, KO): 397 (33.970) Ratio | PGP transport Brain Vmax (VMAXT_brn) (ABCB1 [7]): 14,581 (3.232) nmol/h/kg | PGP transport Heart Vmax (VMAXT_hrt) (ABCB1 [7]): 14,599 (3.449) nmol/h/kg | PGP transport Kidney Vmax (VMAXT_kid) (ABCB1 [7]): 3,003 (0.012) nmol/h/kg | PGP transport Km (KMT) (ABCB1 [7]): 28 (0.007) nmol/kg | PGP transport Lung Vmax (VMAXT_lng) (ABCB1 [7]): 340,176 (13.151) nmol/h/kg | PGP transport Slowly perfused Vmax (VMAXT_sp) (ABCB1 [7]): 10 (0.002) nmol/h/kg | Unchanged docetaxel recovered in the feces [8]: less than 1.5 % of the administered dose | Vmax for CYP3A4 metabolism of docetaxel to M2 (CYP3A4 [9]; in vitro): 14 pmol/min/mg microsomal protein | Km (CYP3A4 [9]; read-out: Km for CYP3A4 metabolism of docetaxel to M2): 0.6 µM | Unchanged drug recovered in the bile [10]: 3–4 % of the dose | Tubulin binding capacity, Brain (TB_brn) (tubulin [11]): 10,710 nmol/kg | Tubulin binding capacity, Heart (TB_hrt) (tubulin [11]): 1,970 nmol/kg | Tubulin binding capacity, Intestine (TB_int) (tubulin [11]): 1,080 nmol/kg | Tubulin binding capacity, Kidney (TB_kid) (tubulin [11]): 1,470 nmol/kg | Tubulin binding capacity, Liver (TB_liv) (tubulin [11]): 3,510 nmol/kg | Tubulin binding capacity, Lung (TB_lng) (tubulin [11]): 2,580 nmol/kg | Saturable KO intestine metabolism Vmax (VMAXM_int_ko) (CYP3A4 [12]): 2,654 nmol/h/kg | Binding affinity relative to paclitaxel (tubulin [13]): approximately 1.9 fold | Docetaxel cleared from plasma relative to wild-type mice (CYP3A4 [14]; mice with CYP3A4 expression in only the intestine): 21% | Docetaxel metabolites M1–4 recovered in the small intestine relative to wild-type mice (CYP3A4 [14]; transgenic mice with no CYP3A4 expression in the liver): 13.5%
